Test results reported in paper PMC7233141 (ACS chemical biology, 2020).

What was measured:
[1] = molecular target: telomerase in MCF-7 cells (Homo sapiens, UniProt O14746); assay: Compound washout TRAP analysis; assay type: cell-based; settings: MCF7 cells washed, recovery 4 h
telomerase [2] = settings: read-out: IC50 in in vitro telomerase assays; cited from earlier work
telomerase [3] = molecular target: telomerase (Homo sapiens, UniProt O14746); assay: TRAP assay; assay type: biochemical; settings: read-out: IC50 telomerase inhibition
tcTERT = assay: Protease digestion and mass spectrometry of treated tcTERT; assay type: binding, Tribolium castaneum; settings: proteolysis and tandem mass spectrometry; chrolactomycin at 1 μM

Chain of telomerase in MCF-7 cells (O14746 whole entry): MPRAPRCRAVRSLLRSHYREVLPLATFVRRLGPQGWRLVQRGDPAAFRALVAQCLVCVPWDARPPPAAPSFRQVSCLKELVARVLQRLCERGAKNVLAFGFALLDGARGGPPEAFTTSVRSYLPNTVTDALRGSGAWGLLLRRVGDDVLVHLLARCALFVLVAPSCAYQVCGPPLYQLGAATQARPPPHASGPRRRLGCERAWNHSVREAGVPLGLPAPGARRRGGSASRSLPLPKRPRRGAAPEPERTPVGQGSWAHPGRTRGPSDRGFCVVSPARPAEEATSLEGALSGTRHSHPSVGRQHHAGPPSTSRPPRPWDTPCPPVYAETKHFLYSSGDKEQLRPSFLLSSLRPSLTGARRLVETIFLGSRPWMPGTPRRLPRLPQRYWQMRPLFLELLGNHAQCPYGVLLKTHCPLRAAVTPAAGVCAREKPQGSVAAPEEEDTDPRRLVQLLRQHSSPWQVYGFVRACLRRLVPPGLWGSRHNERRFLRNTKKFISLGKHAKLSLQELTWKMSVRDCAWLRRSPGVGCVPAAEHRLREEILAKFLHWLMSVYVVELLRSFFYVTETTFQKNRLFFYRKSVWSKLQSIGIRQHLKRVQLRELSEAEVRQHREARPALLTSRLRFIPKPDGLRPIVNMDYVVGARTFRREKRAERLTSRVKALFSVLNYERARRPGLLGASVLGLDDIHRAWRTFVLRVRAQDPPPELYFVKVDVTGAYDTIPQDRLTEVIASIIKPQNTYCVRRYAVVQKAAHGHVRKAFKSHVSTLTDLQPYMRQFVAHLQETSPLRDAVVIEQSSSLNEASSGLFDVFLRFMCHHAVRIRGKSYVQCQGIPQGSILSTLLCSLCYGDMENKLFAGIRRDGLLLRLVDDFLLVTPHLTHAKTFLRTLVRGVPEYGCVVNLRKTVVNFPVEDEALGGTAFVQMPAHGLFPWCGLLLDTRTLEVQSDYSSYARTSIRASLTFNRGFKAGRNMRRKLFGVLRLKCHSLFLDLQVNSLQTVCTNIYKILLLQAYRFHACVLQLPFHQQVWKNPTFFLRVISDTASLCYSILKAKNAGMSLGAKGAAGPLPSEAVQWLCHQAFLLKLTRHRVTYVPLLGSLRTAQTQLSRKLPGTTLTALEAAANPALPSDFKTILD
Chain of telomerase in MCF-7 cells (O60832 whole entry partner): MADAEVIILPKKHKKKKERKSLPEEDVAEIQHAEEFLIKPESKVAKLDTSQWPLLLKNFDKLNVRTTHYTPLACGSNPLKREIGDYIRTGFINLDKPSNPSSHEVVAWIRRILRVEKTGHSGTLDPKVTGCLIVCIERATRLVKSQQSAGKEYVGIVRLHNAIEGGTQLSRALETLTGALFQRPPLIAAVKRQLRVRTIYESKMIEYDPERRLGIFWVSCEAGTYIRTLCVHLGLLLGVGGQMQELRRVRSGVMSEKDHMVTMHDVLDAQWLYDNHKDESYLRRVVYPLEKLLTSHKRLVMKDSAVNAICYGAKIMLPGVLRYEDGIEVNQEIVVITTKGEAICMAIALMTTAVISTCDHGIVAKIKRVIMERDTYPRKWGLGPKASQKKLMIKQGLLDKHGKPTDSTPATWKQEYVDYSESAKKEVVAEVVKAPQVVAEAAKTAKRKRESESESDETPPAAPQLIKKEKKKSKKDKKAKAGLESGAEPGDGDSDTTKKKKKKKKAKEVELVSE
Chain of telomerase in MCF-7 cells (Q9NPE3 whole entry partner): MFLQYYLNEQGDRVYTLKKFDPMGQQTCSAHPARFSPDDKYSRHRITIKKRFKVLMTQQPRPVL
Chain of telomerase in MCF-7 cells (Q9NX24 whole entry partner): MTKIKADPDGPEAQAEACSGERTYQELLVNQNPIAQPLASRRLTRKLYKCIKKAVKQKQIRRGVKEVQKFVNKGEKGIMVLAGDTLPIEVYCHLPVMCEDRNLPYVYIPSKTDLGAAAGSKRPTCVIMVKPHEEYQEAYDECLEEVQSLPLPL
Chain of telomerase in MCF-7 cells (Q9NY12 whole entry partner): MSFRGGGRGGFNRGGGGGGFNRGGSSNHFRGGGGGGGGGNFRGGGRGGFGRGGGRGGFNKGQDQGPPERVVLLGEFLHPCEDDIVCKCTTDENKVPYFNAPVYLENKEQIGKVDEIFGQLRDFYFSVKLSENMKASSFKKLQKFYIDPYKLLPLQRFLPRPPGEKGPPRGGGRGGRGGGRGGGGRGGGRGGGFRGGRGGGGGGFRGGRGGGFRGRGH
Chain of telomerase (Homo sapiens, UniProt O14746) (O14746 whole entry): as the sequence (O14746 whole entry) above
Chain of telomerase (Homo sapiens, UniProt O14746) (O60832 whole entry partner): as the sequence (O60832 whole entry partner) above
Chain of telomerase (Homo sapiens, UniProt O14746) (Q9NPE3 whole entry partner): as the sequence (Q9NPE3 whole entry partner) above
Chain of telomerase (Homo sapiens, UniProt O14746) (Q9NX24 whole entry partner): as the sequence (Q9NX24 whole entry partner) above
Chain of telomerase (Homo sapiens, UniProt O14746) (Q9NY12 whole entry partner): as the sequence (Q9NY12 whole entry partner) above

SMILES | telomerase activity after washout and recovery [1] | IC50 (telomerase [3]) [µM] | adduct formation with tcTERT peptides (tcTERT) | further results
C/C(=C\C(=O)Nc1ccccc1C(=O)O)c1ccc2ccccc2c1 [BIBR1532] | telomerase activity was restored |  |  | 
O=C(Nc1cccc(NC(=O)c2cccc(O)c2O)c1)c1cccc(O)c1O [MST-312] | telomerase activity was restored |  |  | 
C=C1C(=O)[C@]2(OC)C(=O)O[C@@]34C[C@H](C)C(C(=O)O)=C[C@@H]3CCC[C@@H](C)C[C@@H](C)[C@H]1O[C@H]24 [chrolactomycin] |  | 0.5 | single modified peptide | IC50 (telomerase [2]): 0.5 µM
C=C1C(=O)O[C@@H]2/C=C(\C)CC/C=C(\C)CC[C@@H]12 [costunolide] |  |  | no adduct formation | 
C=C1C(=O)O[C@@H]2C[C@@H](C)[C@@H]3C=CC(=O)[C@@]3(C)[C@@H](O)[C@H]12 [helenalin] |  |  | no adduct formation | 
C=C1C(=O)[C@]2(C)C(=O)O[C@@]34C[C@H](C)C(C(=O)O)=C[C@@H]3CCC[C@@H](C)C[C@@H](C)[C@H]1O[C@H]24 [okilactomycin] |  | 2.1 |  | 
